Source: article PMC3492287, “Lysosomotropic Properties of Weakly Basic Anticancer Agents Promote Cancer Cell Selectivity In Vitro” (PLoS ONE, 2012)
“Also recorded” adds a separate entry of the source. Where two headings read alike, the source gives them in different places.

Legend:
[1] = set-up: method as in PMID 17163760; conditions: previously measured; cited from earlier work
[2] = pKa determination by 1H NMR pH titration; format: physicochemical
Description: The pKa values for analogs 1, 2, 3, 5 and 6 (see Figure 2 for chemical structures) were measured at 37°C using ^1H NMR. To determine the pKa using this method, the chemical shifts of protons alpha to the ionizable amine were plotted against pH, yielding sigmoidal curves (Figure S1) from which pKa was derived. […] Therefore, we report a previously measured pKa value for compound 4 that was procured using an alternative approach, and we report a calculated value for compound 7 (see Materials and Methods). […] Only the higher pKa value is reported in Figure 2 because the second is too low to theoretically contribute to ion trapping in lysosomes.
All NMR solvents and reagents were obtained from Cambridge Isotope Labs (Andover, MA), unless noted otherwise. Compounds were dissolved at a 2–3 mg/mL concentration in D2O. pD measurements in D2O were performed using a MiniLab model IQ125 pH electrode (Fisher Scientific, Pittsburg, PA). pD was adjusted using NaOD (40% in D2O) or DCl (20% in D2O). ^1H NMR spectra were recorded at 37°C using a Bruker 400 MHz NMR and analyzed using the Bruker Topspin software. […] (DSS) was used as the reference peak. pD was converted to pH using the following expression: pH = 0.936pD*+0.412 [45]. The change in chemical shift of protons alpha to the amine as a function of pH yielded sigmoidal plots that were fit to a 4-parameter logistic equation using SigmaPlot (Systat Software, San Jose, CA) from which pKa was determined. The calculated pKa for compound 7 was determined using the MarvinSketch version 5.3.8. pKa plugin (www.chemaxon.com).

[3] = test system: MDA-MB-231 cells with low (scrambled shRNA) vs elevated (V1E1 shRNA) lysosomal pH; experiment: intracellular distribution-based (IDB) selectivity from antiproliferative WST-1 IC50 values; format: cell-based, human
From the text: We subsequently evaluated the IC50 of the Hsp90 inhibitors in both cell types (Figure S4) and calculated selectivity as IC50 in MDA-MB-231 cells with low lysosomal pH divided by IC50 in MDA-MB-231 cells with elevated lysosomal pH.
MDA-MB-231 cells with elevated lysosomal pH were generated by lentiviral vector-mediated knockdown of the V-ATPase V1E1 subunit (ATP6V1E1). The lentiviral transfer vector pPGK-Neo-ATP6V1E1 encoding the target sequence 5′-[…]-3′ against the V-ATPase V1E1 subunit was obtained from Mission (Sigma, St. Louis, MO). […] After the cells adhered, 2.6 µg of vector DNA was combined with 26 µL of the lentiviral packaging mix and transfected into cells using Fugene-6 transfection reagent (Roche Diagnostics, Indianapolis, IN), according to the manufacturer's instructions. […] The virus-containing cell culture supernatants were harvested twice: once at 24 h and again at 48 h. Prior to use, the viral media was filtered through a 0.45-µm filter and added onto 70% confluent 75 cc flasks of MDA-MB-231 cells, in the presence of 8 µg/mL hexadimethrine bromide. The viruses were allowed to infect the cells for 16–18 h, after which the media containing viruses was replaced with fresh media for a further 24 h prior to analysis of knockdown of V1E1 expression. The knockdown efficiency was analyzed by Western blotting, performed as described previously. […] Anti-goat HRP-conjugated secondary antibody (Santa Cruz Biotechnology) was used at a 1∶5000 dilution, and anti-mouse HRP-conjugated secondary antibody was used at a 1∶1000 dilution.
Cell sensitivity to compounds was evaluated using the WST-1 (4-[3[(4-iodophenyl)-2-(4-nitrophenyl)-2H-5-tetrazolio]-1,3-benzene disulfonate) assay (BioAssay Systems, Hayward, CA), which was performed according to the manufacturer's instructions. Briefly, 4000 cells were seeded per well of a 96-well plate and allowed to adhere overnight. Cells were incubated in increasing concentrations (9 different concentrations ranging from 0.00001 µM to 1000 µM) of drug for a period of 72 h. At the end of the drug treatment period, 10 µL of WST-1 reagent was added per well, allowed to incubate at 37°C for 2 hours, and absorbance at 450 and 620 nm (reference) was measured using a Multiskan model MCC/340 microplate reader (ThermoElectron Corp, Hudson, NH). Cell viability as a percent of control (untreated) cells was plotted against drug concentration to generate cytotoxicity curves, which were fit to 3 or 4 parameter logistic Hill plots using SigmaPlot. IC50 values were determined from the curve fit.

[4] = cited from earlier work
[5] = 1H NMR in D2O, 37°C, n = 1, for compound 5 the higher pKa, read-out: pKa

For `CO[C@H]1/C=C\C=C(/C)C(=O)NC2=CC(=O)C(NCCN(C)C)=C(C[C@@H](C)C[C@H](OC)[C@H](O)[C@@H](C)/C=C(\C)[C@@H]1OC(N)=O)C2=O` [17-DMAG], the alpha value [1] is listed as 0.01.
Molecule `COC1C=CC=C(C)C(=O)NC2=CC(=O)C(NCCN3CCNCC3)=C(CC(C)CC(OC)C(O)C(C)C=C(C)C1OC(N)=O)C2=O` (centres unmarked) [Compound 5] has a pKa [2, 5] of 9.9 and a pKa ([2]; 1H NMR, 37°C, too low to contribute to ion trapping, read-out: pKa (second, lower value)) of 4.2.
For `O=c1[nH]cc(F)c(=O)[nH]1` [5-fluorouracil], the “IDB selectivity (IC50 low lysosomal pH / IC50 elevated lysosomal pH MDA-MB-231)” value [3] was ~1 and the “IDB selectivity (IC50 low lysosomal pH / IC50 elevated lysosomal pH MDA-MB-231)” value ([3]; 72 h, WST-1, n = 3) was “one and did not show appreciable IDB selectivity”.
`COC1C=CC=C(C)C(=O)NC2=CC(=O)C(NCCN(C)C)=C(CC(C)CC(OC)C(O)C(C)C=C(C)C1OC(N)=O)C2=O` (centres unmarked) [Compound 3] gave a pKa [2] of 7.8.
With `COc1cccc2c1C(=O)c1c(O)c3c(c(O)c1C2=O)C[C@@](O)(C(C)=O)C[C@@H]3O[C@H]1C[C@H](N)[C@H](O)[C@H](C)O1` [daunorubicin] the “IDB selectivity (IC50 low lysosomal pH / IC50 elevated lysosomal pH MDA-MB-231)” value [3] was “significant but different degrees of IDB selectivity; also recorded: significantly higher IDB selectivity than did mitoxantrone”.
Molecule `COC1C=CC=C(C)C(=O)NC2=CC(=O)C(NCCC3CCNCC3)=C(CC(C)CC(OC)C(O)C(C)C=C(C)C1OC(N)=O)C2=O` (centres unmarked) [Compound 6] has a pKa [2, 5] of 10.5.
For `O=C1c2c(O)ccc(O)c2C(=O)c2c(NCCNCCO)ccc(NCCNCCO)c21` [mitoxantrone], the “IDB selectivity (IC50 low lysosomal pH / IC50 elevated lysosomal pH MDA-MB-231)” value ([3]; 72 h, WST-1, n = 3) is given as “significant but different degrees of IDB selectivity”, the “IDB selectivity (IC50 low lysosomal pH / IC50 elevated lysosomal pH MDA-MB-231)” value ([3]; 72 h, WST-1, n = 3, listed as Mitoxantrone) is given as “significant IDB selectivity” and the “pKa” value ([4]; in Figure 6) is given as 6. For the same molecule, the pKa ([4]; weakly basic) was 8.1 and the pKa ([4]; weakly basic, listed as Mitoxantrone) was ~8.
`COC1C=CC=C(C)C(=O)NC2=CC(=O)C(NCCc3cccnc3)=C(CC(C)CC(OC)C(O)C(C)C=C(C)C1OC(N)=O)C2=O` (centres unmarked) [Compound 1] showed a pKa [2, 5] of 5.8.
